Values quoted from earlier work, collected in patent US20070081962A1, “Novel delivery of immune response modifiers for removal of chronic tattoos” (priority 2005, published 2007).

Test system: freshly applied tattoos
Details: guinea pigs tattooed with commonly used tattoo inks; topical 5% cream, initiated within six hours of the tattoo application and continued for seven days

CC(C)Cn1cnc2c(N)nc3ccccc3c21 [irmiquimod, 1-(2-methylpropyl)-1H-imidazo[4,5-c]quinolin-4-amine]
removal of freshly applied tattoos: effective for removing freshly applied tattoos
